# Assay results taken from patent publication US20230391772A1, “METHODS AND COMPOSITIONS FOR TARGETED PROTEIN DEGRADATION” (Ranok Therapeutics (Hangzhou) Co. Ltd., priority 2020, published 2023).
# Legend:
# HSP90a protein = molecular target: T1, HSP90a protein (Homo sapiens, UniProt P07900); test: HSP90α-binding fluorescent polarization (FP) assay, FITC-geldanamycin probe; conditions: FP competition with FITC-geldanamycin, 5 nM, 120 min at 25° C.
# T1 construct: purchased BPS Bioscience 50298
# Description: HSP90α-Binding Fluorescent Polarization (FP) Assay
# Binding of test compounds to HSP90a protein was measured by fluorescent polarization (FP) using the HSP90a (N-terminal) Assay Kit (BPS Bioscience, #50298), following the manufacturer's instructions, except as noted. Fluorescently labeled HSP90-binding compounds, either the provided FITC-geldanamycin (5 nM final concentration) or RNK04010, a triazolone-based HSP90 binding small molecule labeled with BODIPY through a piperizine-phenyl linker (5 nM final concentration) were employed. A 2.5-fold serial dilution of each test compound ranging from 20 μM to 5.2 nM was assayed for binding to HSP90a. After the final step of adding HSP90a protein to each assay well, plates were mixed by brief shaking, incubated at 25° C. for 120 min for FITC-geldanamycin or 300 min for RNK04010, and fluorescence was measured using a PerkinElmer EnVision Plate Reader.
# [1] = system: MIA PaCa-2 human pancreatic carcinoma; test: MIA PaCa-2 CCK-8 proliferation assay; assay type: cell-based; conditions: Homo sapiens, MIA PaCa-2, 72 h, MIA PaCa-2 cells
# Method in brief: (§1)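 CCK-8 absorbance readout; % inhibition = 100 − (compound − blank)/(DMSO − blank) × 100, blank = medium + DMSO, no cells. Dose range 20 μM down to 1.02 nM, 3-fold steps. KRAS(G12C) copy number: MIA PaCa-2 2; NCI-H358 1; NCI-H23 1.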
# KRAS(G12C) [2] = molecular target: T2, KRAS(G12C) (Homo sapiens, UniProt P01116, G12C); test: KRAS(G12C) Western blot protein degradation assay in MIA PaCa-2 cells; assay type: cell-based; design: host or cells: LU65A; conditions: 48 hr; for inhibition at 0.1562 µM: 156.2 nM; for inhibition at 0.3125 µM: 312.5 nM; for inhibition at 0.625 µM: 625 nM; for inhibition at 1.25 µM: 1250 nM; for inhibition at 2.5 µM: 2500 nM; for inhibition at 5 µM: 5000 nM; for inhibition at 10 µM: 10,000 nM
# [3] = system: NCI-H358 human non-small cell lung cancer; test: NCI-H358 CCK-8 proliferation assay; assay type: cell-based; conditions: NCI-H358 cells, 72 hr
# Method in brief: as §1
# KRAS(G12C) [4] = molecular target: T2, KRAS(G12C); test: KRAS(G12C)/SOS1 homogeneous time-resolved fluorescence (HTRF) assay; design: purchased Cisbio 63ADK000CB16PEG; conditions: absence of GTP, 4° C. for 3 hr, read-out: KRAS (G12C) binding
# Method in brief: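 HTRF kit measuring compound-induced block of KRAS(G12C)-SOS1 interaction without GTP. Compounds tested as 3-fold serial dilutions down to 1.02 nM, incubated with reaction components 3 h at 4 °C in sealed plates before fluorescence read.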
# T2 sequence (P01116 1-188 isoform P01116-2 G12C): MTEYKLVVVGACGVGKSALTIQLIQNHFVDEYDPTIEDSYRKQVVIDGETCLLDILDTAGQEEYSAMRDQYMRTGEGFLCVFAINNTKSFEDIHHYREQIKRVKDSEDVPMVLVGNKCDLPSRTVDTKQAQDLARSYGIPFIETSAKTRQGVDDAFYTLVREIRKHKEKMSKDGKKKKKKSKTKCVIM
SMILES,IC50 (HSP90a protein) [nM],EC50 [1] [nM],inhibition at 0.1562 µM (KRAS(G12C) [2]) [%],inhibition at 0.3125 µM (KRAS(G12C) [2]) [%],inhibition at 0.625 µM (KRAS(G12C) [2]) [%],inhibition at 1.25 µM (KRAS(G12C) [2]) [%],inhibition at 2.5 µM (KRAS(G12C) [2]) [%],inhibition at 5 µM (KRAS(G12C) [2]) [%],inhibition at 10 µM (KRAS(G12C) [2]) [%],EC50 [3] [nM],IC50 (KRAS(G12C) [4]) [nM]
"C=CC(=O)N1CCN(c2nc(OC[C@@H]3CCCN3C(=O)C3CCN(Cc4ccc(-n5c(O)nnc5-c5cc(C(C)C)c(O)cc5O)cc4)CC3)nc3c2CCN(c2cccc4cccc(Cl)c24)C3)C[C@@H]1CC#N [Compound 139, 2-((S)-1-acryloyl-4-(7-(8-chloronaphthalen-1-yl)-2-(((S)-1-(1-(4-(3-(2,4-dihydroxy-5-isopropylphenyl)-5-hydroxy-4H-1,2,4-triazol-4-yl)benzyl)piperidine-4-carbonyl)pyrrolidin-2-yl)methoxy)-5,6,7,8-tetrahydropyrido[3,4-d]pyrimidin-4-yl)piperazin-2-yl)acetonitrile]",100 to 1000,> 1000,< 33,< 33,< 33,< 33,< 33,< 33,< 33,100 to 1000,> 1000
"C=C(F)C(=O)N1CCN(c2nc(N3CCC(CN4CCC(Cc5ccc(-n6c(O)nnc6-c6cc(C(C)C)c(O)cc6O)cc5)CC4)CC3)nc3c2CCN(c2cccc4cccc(Cl)c24)C3)C[C@@H]1CC#N [Compound 137, (S)-2-(4-(7-(8-chloronaphthalen-1-yl)-2-(4-((4-(4-(3-(2,4-dihydroxy-5-isopropylphenyl)-5-hydroxy-4H-1,2,4-triazol-4-yl)benzyl)piperidin-1-yl)methyl)piperidin-1-yl)-5,6,7,8-tetrahydropyrido[3,4-d]pyrimidin-4-yl)-1-(2-fluoroacryloyl)piperazin-2-yl)acetonitrile, acetic acid]",100 to 1000,–,–,–,–,–,–,–,–,100 to 1000,–
"C=C(F)C(=O)N1CCN(c2nc(N3CCC(CN4CCN(Cc5ccc(-n6c(C(=O)NCC(F)(F)F)nnc6-c6cc(CC)c(O)cc6O)cc5)CC4)CC3)nc3c2CCN(c2cccc4cccc(Cl)c24)C3)C[C@@H]1CC#N [Compound 138, (S)-4-(4-((4-((1-(7-(8-chloronaphthalen-1-yl)-4-(3-(cyanomethyl)-4-(2-fluoroacryloyl)piperazin-1-yl)-5,6,7,8-tetrahydropyrido[3,4-d]pyrimidin-2-yl)piperidin-4-yl)methyl)piperazin-1-yl)methyl)phenyl)-5-(5-ethyl-2,4-dihydroxyphenyl)-N-(2,2,2-trifluoroethyl)-4H-1,2,4-triazole-3-carboxamide]",> 1000,–,–,–,–,–,–,–,–,> 1000,–

# Now from value to compound:
IC50 (HSP90a protein) [nM],EC50 [1] [nM],inhibition at 0.1562 µM (KRAS(G12C) [2]) [%],inhibition at 0.3125 µM (KRAS(G12C) [2]) [%],inhibition at 0.625 µM (KRAS(G12C) [2]) [%],inhibition at 1.25 µM (KRAS(G12C) [2]) [%],inhibition at 2.5 µM (KRAS(G12C) [2]) [%],inhibition at 5 µM (KRAS(G12C) [2]) [%],inhibition at 10 µM (KRAS(G12C) [2]) [%],EC50 [3] [nM],IC50 (KRAS(G12C) [4]) [nM],SMILES
100 to 1000,< 100,< 33,< 33,< 33,33 to 66,33 to 66,33 to 66,33 to 66,–,–,"C=C(F)C(=O)N1CCN(c2nc(OC[C@@H]3CCN(C(=O)C4CCN(Cc5ccc(-n6c(C(=O)NCC(F)(F)F)nnc6-c6cc(C(C)C)c(O)cc6O)cc5)CC4)C3)nc3c2CCN(c2cccc4cccc(Cl)c24)C3)C[C@@H]1CC#N [Compound 168, 4-(4-((4-((R)-3-(((7-(8-chloronaphthalen-1-yl)-4-((S)-3-(cyanomethyl)-4-(2-fluoroacryloyl)piperazin-1-yl)-5,6,7,8-tetrahydropyrido[3,4-d]pyrimidin-2-yl)oxy)methyl)pyrrolidine-1-carbonyl)piperidin-1-yl)methyl)phenyl)-5-(2,4-dihydroxy-5-isopropylphenyl)-N-(2,2,2-trifluoroethyl)-4H-1,2,4-triazole-3-carboxamide]"
100 to 1000,100 to 1000,–,–,–,–,–,–,–,100 to 1000,–,"C=C(F)C(=O)N1CCN(c2nc(OC[C@@H]3CCN(C(=O)C4CCN(Cc5ccc(-n6c(O)nnc6-c6cc(C(C)C)c(O)cc6O)cc5)CC4)C3)nc3c2CCN(c2cccc4cccc(Cl)c24)C3)C[C@@H]1CC#N [Compound 145, 2-((S)-4-(7-(8-chloronaphthalen-1-yl)-2-(((R)-1-(1-(4-(3-(2,4-dihydroxy-5-isopropylphenyl)-5-hydroxy-4H-1,2,4-triazol-4-yl)benzyl)piperidine-4-carbonyl)pyrrolidin-3-yl)methoxy)-5,6,7,8-tetrahydropyrido[3,4-d]pyrimidin-4-yl)-1-(2-fluoroacryloyl)piperazin-2-yl)acetonitrile, acetic acid]"
< 100,100 to 1000,–,–,–,–,–,–,–,100 to 1000,–,"CCC(=O)N1CCN(c2nc(OCC3CCN(C(=O)C4CCN(Cc5ccc(-n6c(O)nnc6-c6cc(C(C)C)c(O)cc6O)cc5)CC4)CC3)nc3c2CCN(c2cccc4cccc(Cl)c24)C3)C[C@@H]1CC#N [Compound 147, (S)-2-(4-(7-(8-chloronaphthalen-1-yl)-2-((1-(1-(4-(3-(2,4-dihydroxy-5-isopropylphenyl)-5-hydroxy-4H-1,2,4-triazol-4-yl)benzyl)piperidine-4-carbonyl)piperidin-4-yl)methoxy)-5,6,7,8-tetrahydropyrido[3,4-d]pyrimidin-4-yl)-1-propionylpiperazin-2-yl)acetonitrile]"
100 to 1000,–,–,–,–,–,–,–,–,100 to 1000,–,"CCC(=O)N1CCN(c2nc(OC[C@@H]3CCN(C(=O)C4CCN(Cc5ccc(-n6c(O)nnc6-c6cc(C(C)C)c(O)cc6O)cc5)CC4)C3)nc3c2CCN(c2cccc4cccc(Cl)c24)C3)C[C@@H]1CC#N [Compound 141, 2-((S)-4-(7-(8-chloronaphthalen-1-yl)-2-(((R)-1-(1-(4-(3-(2,4-dihydroxy-5-isopropylphenyl)-5-hydroxy-4H-1,2,4-triazol-4-yl)benzyl)piperidine-4-carbonyl)pyrrolidin-3-yl)methoxy)-5,6,7,8-tetrahydropyrido[3,4-d]pyrimidin-4-yl)-1-propionylpiperazin-2-yl)acetonitrile]"
